According to PMC7970697, “Inhibition and Induction by Poziotinib of Different Rat Cytochrome P450 Enzymes In Vivo and in an In Vitro Cocktail Method” (Frontiers in Pharmacology, 2021):
Where two headings read alike, the source gives them in different places.

What was measured:
cyp1a2 = target: T1, cyp1a2 (Rattus norvegicus, UniProt P04799); assay: Cocktail method IC50 in rat liver microsomes, phenacetin probe; type: in vitro ADME
T1 construct: To this cocktail, 1 mg/ml of RLMs; from tissue; host or cells: rat liver microsomes, prepared in-house
T1 sequence (P04799 1-513): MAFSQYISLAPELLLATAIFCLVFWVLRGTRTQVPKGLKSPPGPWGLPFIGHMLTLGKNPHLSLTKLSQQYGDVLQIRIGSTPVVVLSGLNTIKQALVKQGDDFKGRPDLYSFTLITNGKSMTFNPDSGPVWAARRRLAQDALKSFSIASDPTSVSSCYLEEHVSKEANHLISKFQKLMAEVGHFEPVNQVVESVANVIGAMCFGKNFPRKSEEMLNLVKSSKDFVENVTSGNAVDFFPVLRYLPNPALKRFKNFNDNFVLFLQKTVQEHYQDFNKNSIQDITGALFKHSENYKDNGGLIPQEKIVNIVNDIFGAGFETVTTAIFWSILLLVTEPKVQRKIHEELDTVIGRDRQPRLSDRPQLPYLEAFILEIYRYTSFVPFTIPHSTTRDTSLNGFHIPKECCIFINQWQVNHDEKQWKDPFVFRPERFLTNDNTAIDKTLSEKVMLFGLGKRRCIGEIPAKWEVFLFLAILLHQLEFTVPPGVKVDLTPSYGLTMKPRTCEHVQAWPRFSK
Protocol: (§1) The cocktail method was employed to analyze the effects of poziotinib on cyp1a2, cyp2b1, cyp2c11, cyp2d1, cyp2e1, and cyp3a1/2. […] Then half-maximal inhibitory concentration (IC50) of poziotinib was determined with all of the CYPs. […]. To this cocktail, 1 mg/ml of RLMs, 100 mM potassium phosphate buffer (pH 7.4), poziotinib (1, 2.5, 5, 10, 25, 50, or 100 μM) were added to obtain a final volume of 200 μL. After pre-incubation of this mixture for 5 min in a shaking water bath at 37°C, 1 mM NADPH was added to start the reaction. The reactions were allowed to proceed for 30 min, after which 200 μL of acetonitrile and 20 μL of IS were added to terminate the reactions. The mixtures were vortexed for 30 s and centrifuged again at 13,000 rpm for 5 min.

cyp2d1 [1] = target: T2, cyp2d1 (Rattus norvegicus, UniProt P10633); assay: Cocktail method IC50 in rat liver microsomes, dextromethorphan probe; type: in vitro ADME
T2 sequence (P10633 1-504): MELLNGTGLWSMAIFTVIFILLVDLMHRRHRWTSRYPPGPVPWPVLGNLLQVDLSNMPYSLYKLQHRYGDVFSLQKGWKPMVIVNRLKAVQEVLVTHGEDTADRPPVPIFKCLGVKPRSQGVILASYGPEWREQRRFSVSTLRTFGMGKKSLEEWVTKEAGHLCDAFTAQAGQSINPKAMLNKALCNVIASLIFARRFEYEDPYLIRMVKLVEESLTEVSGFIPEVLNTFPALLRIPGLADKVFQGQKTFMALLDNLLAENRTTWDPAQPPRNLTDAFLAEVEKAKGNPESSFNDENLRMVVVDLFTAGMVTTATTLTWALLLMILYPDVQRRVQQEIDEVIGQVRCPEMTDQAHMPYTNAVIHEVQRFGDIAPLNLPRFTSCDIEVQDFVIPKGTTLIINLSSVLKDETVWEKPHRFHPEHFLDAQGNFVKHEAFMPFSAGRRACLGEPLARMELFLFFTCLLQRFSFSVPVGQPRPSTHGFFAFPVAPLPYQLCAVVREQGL
Protocol: as §1

cyp2e1 [2] = target: T3, cyp2e1 (Rattus norvegicus, UniProt P05182); assay: Cocktail method IC50 in rat liver microsomes, chlorzoxazone probe; type: in vitro ADME
T3 construct: To this cocktail, 1 mg/ml of RLMs; from tissue; host or cells: rat liver microsomes, prepared in-house
Protocol: as §1

cyp2e1 [3] = assay: Effect of poziotinib on cyp2e1 activity in rats (chlorzoxazone pharmacokinetics); type: in vivo, Sprague-Dawley rats; details: poziotinib 5 mg/kg oral 7 days, chlorzoxazone probe
Protocol: (§2) Twelve male Sprague-Dawley rats (230 ± 20 g) were randomly divided into treated and control groups, with 6 in each group. […] The supernatant was mixed with 200 μL of acetonitrile and 20 μL of 0.5 μg/ml diazepam (IS), vortexed for 30 s, centrifuged at 13,000 rpm for 5 min, and the supernatant was injected into the UPLC-MS/MS system for analysis.
(§3) Pharmacokinetic parameters were calculated using DAS software (Version 3.2.8). SPSS software (version 16.0; SPSS Inc., Chicago, IL, United States) was used to analyze the significance of differences between the main pharmacokinetic parameters. p < 0.05 was considered statistically significant. GraphPad (version 8.0; GraphPad Software Inc., San Diego, CA, United States) was used to calculate IC50 and plot the plasma concentration-time curves and inhibition plots (type of inhibition, time- and concentration-dependence).

CYP3A4 and CYP2D6 = test system: CYP3A4 and CYP2D6; parameters: method as in Kim et al., 2013; details: LC-MS/MS; ref Kim et al., 2013; cited from earlier work
[4] = parameters: method as in He et al., 2019; Kim T. Y. et al., 2019; details: treatment, ref He et al., 2019, Kim T. Y. et al.; cited from earlier work
cyp2c11 = target: T4, cyp2c11 (Rattus norvegicus, UniProt P08683); assay: Time- and concentration-dependent inhibition in RLMs, tolbutamide; type: in vitro ADME; parameters: from tissue; host or cells: rat liver microsomes, prepared in-house
T4 sequence (P08683 1-500): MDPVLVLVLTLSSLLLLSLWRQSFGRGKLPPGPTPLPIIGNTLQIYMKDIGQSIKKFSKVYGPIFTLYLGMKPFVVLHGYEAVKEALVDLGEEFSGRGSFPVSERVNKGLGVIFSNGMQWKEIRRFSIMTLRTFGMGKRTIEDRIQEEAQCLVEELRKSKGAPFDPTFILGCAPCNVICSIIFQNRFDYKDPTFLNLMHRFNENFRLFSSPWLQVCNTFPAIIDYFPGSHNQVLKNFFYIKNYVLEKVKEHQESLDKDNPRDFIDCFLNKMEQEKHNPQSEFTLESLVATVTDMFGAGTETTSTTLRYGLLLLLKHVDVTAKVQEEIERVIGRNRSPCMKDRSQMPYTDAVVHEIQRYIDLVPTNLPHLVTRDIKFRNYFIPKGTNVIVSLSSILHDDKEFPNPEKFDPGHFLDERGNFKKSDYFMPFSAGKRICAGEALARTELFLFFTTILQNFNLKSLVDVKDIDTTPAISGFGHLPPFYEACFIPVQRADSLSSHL
Protocol: A mixture containing 1 mg/ml of RLMs, different concentrations of poziotinib (0, 2, 4, 8 and16 μM for 2b1; 0, 5, 10 20 and 40 μM for 2c11), and NADPH was pre-incubated at 37°C for 0, 5, 10, and 20 min; Methanol instead of poziotinib was performed as control. Then 20 μM bupropion or 100 μM tolbutamide was added and incubated at 37°C for 30 min. The reactions were carried out and analyzed in triplicate as described in 2.3.

cyp2d1 [5] = target: T2, cyp2d1; assay: Effect of poziotinib on cyp2d1 activity in rats (dextromethorphan pharmacokinetics); type: in vivo, Sprague-Dawley rats; parameters: from tissue; host or cells: living male Sprague-Dawley rats (whole animal); details: poziotinib 5 mg/kg oral 7 days, dextromethorphan probe
Protocol: as §2, §3

T3 sequence (P05182 whole entry): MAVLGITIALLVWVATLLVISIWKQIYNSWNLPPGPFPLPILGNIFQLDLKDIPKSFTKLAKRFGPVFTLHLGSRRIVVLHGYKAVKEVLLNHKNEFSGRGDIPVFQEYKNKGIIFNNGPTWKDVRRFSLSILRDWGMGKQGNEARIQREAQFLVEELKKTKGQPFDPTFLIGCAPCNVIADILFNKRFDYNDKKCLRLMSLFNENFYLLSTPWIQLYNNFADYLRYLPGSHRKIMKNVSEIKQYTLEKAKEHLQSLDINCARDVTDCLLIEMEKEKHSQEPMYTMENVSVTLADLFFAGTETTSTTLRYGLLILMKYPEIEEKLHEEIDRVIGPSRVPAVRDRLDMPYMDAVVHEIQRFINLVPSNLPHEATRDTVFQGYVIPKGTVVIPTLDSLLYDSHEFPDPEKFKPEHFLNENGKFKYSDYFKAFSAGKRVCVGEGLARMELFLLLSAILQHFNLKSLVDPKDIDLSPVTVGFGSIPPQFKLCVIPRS

Structure (SMILES): C=CC(=O)N1CCC(Oc2cc3c(Nc4ccc(Cl)c(Cl)c4F)ncnc3cc2OC)CC1 [Poziotinib]
- inhibitory effect on cyp1a2 (in words) (cyp1a2): did not show any obvious inhibitory effect
- IC50 (cyp1a2; 40 μM phenacetin, cocktail, 30 min): 128 µM
- inhibitory effect on cyp1a2 (in words) (cyp1a2; listed as poziotinib): not obvious
- inhibitory effect on cyp2d1 (in words) (cyp2d1 [1]): weak inhibition
- inhibitory effect on cyp2d1 (in words) (cyp2d1 [1]; listed as poziotinib): not obvious
- IC50 at 30 min (cyp2d1 [1]; pH 7.4, probe dextromethorphan (10 μM), 10 μM dextromethorphan, cocktail, 30 min): 62 µM
- inhibitory effect on cyp2e1 (in words) (cyp2e1 [2]): did not show any obvious inhibitory effect
- IC50 (cyp2e1 [2]; 40 μM chlorzoxazone, cocktail, 30 min): 156 µM
- inhibitory effect on cyp2e1 (in words) (cyp2e1 [2]; listed as poziotinib): not obvious
- effect on cyp2e1 activity in rats (cyp2e1 [3]): induced cyp2e1 activity
- enzymes producing main metabolites M1 (dihydroxylation) and M2 (demethylation) (CYP3A4 and CYP2D6): mainly produced by CYP3A4 and CYP2D6 activity
- common adverse reactions [4]: rash, diarrhea, and itching
- time- and concentration-dependent inhibition of cyp2c11 (cyp2c11; pre-incubation 0, 5, 10, 20 min, poziotinib 5-40 μM): no time- or concentration-dependent inhibitory effects
- reversibility of inhibition of cyp2c11 (cyp2c11; pre-incubation 0, 5, 10, 20 min with NADPH): reversible
- effect on cyp2d1 activity in rats (cyp2d1 [5]): no obvious inhibitory effect
